# Counter-ions that a name gives are not always drawn.
# How the values were obtained:
# Format in all cases: cell-based
# [1] = tested on: A. baumannii clinical isolate (strain 7); experiment: MIC by broth microdilution (alone and in combination with meropenam), strain 7; settings: Acinetobacter baumannii, compound alone, read-out: MIC, antibacterial activity of example alone
# Procedure: (§1) Compounds of the present invention alone, meropenam (MER) alone, and as a combination with test antibiotic (meropenam) were tested for antimicrobial activity by determing minimum inhibitory concentration (MIC, mg/L) using the broth microdilution method according to the guidelines of the Clinical Laboratories and Stansards Insitute (“Methods for Dilution Antimicrobial Suscetibility Tests for Bacterial that Grow Aerobiclly”, Approved standard, […]., Clinical and Laboratories Stanards Institute (CLSI) Document M7-A8, Wayne, Pa., USA, 2009). Meropenam as a test antibiotic compound was dissolved in DMSO. Meropenam was then diluted in microbial growth medium (Mueller-Hinton Broth II, cation adjusted) resulting in a final concention range of 0.125-64 mg/L in serial two-fold dilution. In all cases the filnal DMSO concentraion was less than 0.5%. Bacteria were added to 96-well microtitre plates containing the serial two-fold dilutions of the compoumds; the final cell density was appoximately 5x10^5 colony forming units/mL (CFU/mL). Plates were incubated at 37° C. for 18-24 hours and read visually. The MIC, i.e. the lowest concentration of the test compound that inhibited visible growth of the bacteria, was recorded. The same assay conditions were used when the compounds of present invention alone, and as a combination with test meropenam antibiotic compound was tested for minmum inhibitory concentration (MIC, mg/L). Whileest meropenam was serially diluted as descrribed above, a constant concentration of the present invention of 4 µg/mL was used.
# (§2) Bacterial strains that were used to evaluate the antimicrobial activity using the MIC determination included but were not limited to E. coli clinical isolate (strain 1), E. coli 8739 (strain 2), K. pneumoniae clinical isolate (strain 3), K. pneumoniae 700603 (strain 4), E. cloacae clinical isolate (strain 5), E. cloacae 700323 (strain 6), A. baumannii clinical isolate (strain 7), A. baumannii 19606 (strain 8), P. aeruginosa clinical isolate (strain 9), P. aeruginosa 9027 (strain 10).
# [2] = tested on: P. aeruginosa 9027 (strain 10); experiment: MIC by broth microdilution (alone and in combination with meropenam), strain 10; settings: Pseudomonas aeruginosa, compound alone, read-out: MIC, antibacterial activity of example alone
# Procedure: as §1, §2
# [3] = tested on: E. coli clinical isolate (strain 1); experiment: MIC by broth microdilution (alone and in combination with meropenam), strain 1; settings: Escherichia coli, compound alone, read-out: MIC, antibacterial activity of example alone
# Procedure: as §1, §2
# [4] = tested on: K. pneumoniae clinical isolate (strain 3); experiment: MIC by broth microdilution (alone and in combination with meropenam), strain 3; settings: Klebsiella pneumoniae, compound alone, read-out: MIC, antibacterial activity of example alone
# Procedure: as §1, §2
# [5] = tested on: P. aeruginosa clinical isolate (strain 9); experiment: MIC by broth microdilution (alone and in combination with meropenam), strain 9; settings: Pseudomonas aeruginosa, compound alone, read-out: MIC, antibacterial activity of example alone
# Procedure: as §1, §2
# [6] = tested on: A. baumannii 19606 (strain 8); experiment: MIC by broth microdilution (alone and in combination with meropenam), strain 8; settings: Acinetobacter baumannii, compound alone, read-out: MIC, antibacterial activity of example alone
# Procedure: as §1, §2
# [7] = tested on: E. cloacae 700323 (strain 6); experiment: MIC by broth microdilution (alone and in combination with meropenam), strain 6; settings: Enterobacter cloacae, compound alone, read-out: MIC, antibacterial activity of example alone
# Procedure: as §1, §2
# [8] = tested on: K. pneumoniae 700603 (strain 4); experiment: MIC by broth microdilution (alone and in combination with meropenam), strain 4; settings: Klebsiella pneumoniae, compound alone, read-out: MIC, antibacterial activity of example alone
# Procedure: as §1, §2
# [9] = tested on: E. coli 8739 (strain 2); experiment: MIC by broth microdilution (alone and in combination with meropenam), strain 2; settings: Escherichia coli, compound alone, read-out: MIC, antibacterial activity of example alone
# Procedure: as §1, §2
# [10] = tested on: E. cloacae clinical isolate (strain 5); experiment: MIC by broth microdilution (alone and in combination with meropenam), strain 5; settings: Enterobacter cloacae, compound alone, read-out: MIC, antibacterial activity of example alone
# Procedure: as §1, §2
Compound,MIC [1] [µg/mL],MIC [2] [µg/mL],MIC [3] [µg/mL],MIC [4] [µg/mL],MIC [5] [µg/mL],MIC [6] [µg/mL],MIC [7] [µg/mL],MIC [8] [µg/mL],MIC [9] [µg/mL],MIC [10] [µg/mL]
"N=C(NC(=O)Cc1ncccn1)[C@@H]1CC[C@@H]2CN1C(=O)N2OS(=O)(=O)[O-].[Na+] [Ex.25, Sodium (2S,5R)-7-oxo-2-(N-(2-(pyrimidin-2-yl)acetyl)carbamimidoyl)-1,6-diazabicyclo[3.2.1]octan-6-yl Sulfate]",> 64,> 64,> 64,> 64,> 64,> 64,> 64,> 64,> 64,> 64
"CN1CCC[C@H](C(=O)NC(=N)[C@@H]2CC[C@@H]3CN2C(=O)N3OS(=O)(=O)[O-])C1.[Na+] [Ex.28, Sodium (2S,5R)-2-(N-((S)-1-methylpiperidine-3-carbonyl)carbamimidoyl)-7-oxo-1,6-diazabicyclo[3.2.1]octan-6-yl Sulfate]",> 64,> 64,> 64,> 64,> 64,> 64,> 64,> 64,> 64,> 64
"CN1CCC[C@@H](C(=O)NC(=N)[C@@H]2CC[C@@H]3CN2C(=O)N3OS(=O)(=O)[O-])C1.[Na+] [Ex.29, Sodium (2S,5R)-2-(N-((R)-1-methylpiperidine-3-carbonyl)carbamimidoyl)-7-oxo-1,6-diazabicyclo[3.2.1]octan-6-yl Sulfate]",> 64,> 64,> 64,> 64,> 64,> 64,> 64,> 64,> 64,> 64
"N=C(NC(=O)Cc1cccnc1)[C@@H]1CC[C@@H]2CN1C(=O)N2OS(=O)(=O)[O-].[Na+] [Ex.34, Sodium (2S,5R)-7-oxo-2-(N-(2-(pyridin-3-yl)acetyl)carbamimidoyl)-1,6-diazabicyclo[3.2.1]octan-6-yl sulfate]",> 64,> 64,> 64,> 64,> 64,> 64,> 64,> 64,> 64,> 64
"N=C(NC(=O)CN1CCCCC1)[C@@H]1CC[C@@H]2CN1C(=O)N2OS(=O)(=O)[O-].[Na+] [Ex.35, Sodium (2S,5R)-7-oxo-2-(N-(2-(piperidin-1-yl)acetyl)carbamimidoyl)-1,6-diazabicyclo[3.2.1]octan-6-yl Sulfate]",> 64,> 64,> 64,> 64,> 64,> 64,> 64,> 64,> 64,> 64
"N=C(NC(=O)CC1CCCCC1)[C@@H]1CC[C@@H]2CN1C(=O)N2OS(=O)(=O)[O-].[Na+] [Ex.36, Sodium (2S,5R)-2-(N-(2-cyclohexylacetyl)carbamimidoyl)-7-oxo-1,6-diazabicyclo[3.2.1]octan-6-yl Sulfate]",> 64,> 64,> 64,> 64,> 64,> 64,> 64,> 64,> 64,> 64
"N=C(NC(=O)C1CCCCC1)[C@@H]1CC[C@@H]2CN1C(=O)N2OS(=O)(=O)[O-].[Na+] [Ex.37, Sodium (2S,5R)-2-(N-(cyclohexanecarbonyl)carbamimidoyl)-7-oxo-1,6-diazabicyclo[3.2.1]octan-6-yl Sulfate]",> 64,> 64,> 64,> 64,> 64,> 64,> 64,> 64,> 64,> 64
"N=C(NC(=O)CC1CCOCC1)[C@@H]1CC[C@@H]2CN1C(=O)N2OS(=O)(=O)[O-].[Na+] [Ex.38, Sodium (2S,5R)-7-oxo-2-(N-(2-(tetrahydro-2H-pyran-4-yl)acetyl)carbamimidoyl)-1,6-diazabicyclo[3.2.1]octan-6-yl Sulfate]",> 64,> 64,> 64,> 64,> 64,> 64,> 64,> 64,> 64,> 64
"N=C(NC(=O)Cn1ccnc1)[C@@H]1CC[C@@H]2CN1C(=O)N2OS(=O)(=O)[O-].[Na+] [Ex.39, Sodium (2S,5R)-2-(N-(2-(1H-imidazol-1-yl)acetyl)carbamimidoyl)-7-oxo-1,6-diazabicyclo[3.2.1]octan-6-yl Sulfate]",> 64,> 64,> 64,> 64,> 64,> 64,> 64,> 64,> 64,> 64

# The remaining lines, values ahead:
MIC [1] [µg/mL],MIC [2] [µg/mL],MIC [3] [µg/mL],MIC [4] [µg/mL],MIC [5] [µg/mL],MIC [6] [µg/mL],MIC [7] [µg/mL],MIC [8] [µg/mL],MIC [9] [µg/mL],MIC [10] [µg/mL],Compound
> 64,> 64,> 64,> 64,> 64,> 64,> 64,> 64,> 64,> 64,"CC(=O)N1CCC[C@H](C(=O)NC(=N)[C@@H]2CC[C@@H]3CN2C(=O)N3OS(=O)(=O)[O-])C1.[Na+] [Ex.26, Sodium (2S,5R)-2-(N-((S)-1-acetylpiperidine-3-carbonyl)carbamimidoyl)-7-oxo-1,6-diazabicyclo[3.2.1]octan-6-yl Sulfate]"
> 64,> 64,> 64,> 64,> 64,> 64,> 64,> 64,> 64,> 64,"CC(=O)N1CCC[C@@H](C(=O)NC(=N)[C@@H]2CC[C@@H]3CN2C(=O)N3OS(=O)(=O)[O-])C1.[Na+] [Ex.27, Sodium (2S,5R)-2-(N-((R)-1-acetylpiperidine-3-carbonyl)carbamimidoyl)-7-oxo-1,6-diazabicyclo[3.2.1]octan-6-yl Sulfate]"
> 64,> 64,> 64,> 64,> 64,> 64,> 64,> 64,> 64,> 64,"CC(=O)N1CC[C@H](C(=O)NC(=N)[C@@H]2CC[C@@H]3CN2C(=O)N3OS(=O)(=O)[O-])C1.[Na+] [Ex.30, Sodium (2S,5R)-2-(N-((S)-1-acetylpyrrolidine-3-carbonyl)carbamimidoyl)-7-oxo-1,6-diazabicyclo[3.2.1]octan-6-yl Sulfate]"
> 64,> 64,> 64,> 64,> 64,> 64,> 64,> 64,> 64,> 64,"CC(=O)N1CC[C@@H](C(=O)NC(=N)[C@@H]2CC[C@@H]3CN2C(=O)N3OS(=O)(=O)O)C1 [Ex.31, Sodium (2S,5R)-2-(N-((R)-1-acetylpyrrolidine-3-carbonyl)carbamimidoyl)-7-oxo-1,6-diazabicyclo[3.2.1]octan-6-yl Sulfate]"
> 64,> 64,> 64,> 64,> 64,> 64,> 64,> 64,> 64,> 64,"CN1CC[C@H](C(=O)NC(=N)[C@@H]2CC[C@@H]3CN2C(=O)N3OS(=O)(=O)[O-])C1.[Na+] [Ex.32, Sodium (2S,5R)-2-(N-((S)-1-methylpyrrolidine-3-carbonyl)carbamimidoyl)-7-oxo-1,6-diazabicyclo[3.2.1]octan-6-yl Sulfate]"
> 64,> 64,> 64,> 64,> 64,> 64,> 64,> 64,> 64,> 64,"CN1CC[C@@H](C(=O)NC(=N)[C@@H]2CC[C@@H]3CN2C(=O)N3OS(=O)(=O)O)C1 [Ex.33, Sodium (2S,5R)-2-(N-((R)-1-methylpyrrolidine-3-carbonyl)carbamimidoyl)-7-oxo-1,6-diazabicyclo[3.2.1]octan-6-yl Sulfate]"
